Structures are written as SMILES. pIC50: −log10 of the molar value.

Our source for the IC50 values is patent publication US10479780B2, “Aminopyrazole derivatives” (Chugai Seiyaku Kabushiki Kaisha, priority 2015, dated 2019).

Holding throughout (assay type): biochemical
One assay concerns the target T1, human Yes1 enzyme (Homo sapiens, UniProt P07947).
T1 construct: made in house
Kind of assay: Yes1 enzyme inhibitory activity (time-resolved fluorometry, biotinylated peptide phosphorylation). Particulars: biotinylated peptide phosphorylation, read-out: YES_IC50. In outline:
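Inhibition was expressed against a compound-free control to give IC50, using TR-FRET read-out (Eu-cryptate anti-pTyr antibody, streptavidin-XL665).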

The next assay addresses T2, human Src enzyme (Homo sapiens, UniProt P12931).
T2 construct: purchased Carna Biosciences, Inc. 08-173
Kind of assay: Src enzyme inhibitory activity (time-resolved fluorometry, biotinylated peptide phosphorylation). The conditions noted are these: biotinylated peptide phosphorylation, read-out: SRC_IC50. An outline of the steps:
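Compounds were tested for blocking tyrosine phosphorylation of a biotinylated peptide substrate by recombinant human Src. Phosphorylated product was quantified by time-resolved fluorometry using europium cryptate and XL665 conjugates, and IC50 was calculated against the compound-free control.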

A further assay deals with T3, human Lck enzyme (Homo sapiens, UniProt P06239).
T3 construct: purchased Carna Biosciences, Inc. 08-170
T3 sequence (P06239 whole entry): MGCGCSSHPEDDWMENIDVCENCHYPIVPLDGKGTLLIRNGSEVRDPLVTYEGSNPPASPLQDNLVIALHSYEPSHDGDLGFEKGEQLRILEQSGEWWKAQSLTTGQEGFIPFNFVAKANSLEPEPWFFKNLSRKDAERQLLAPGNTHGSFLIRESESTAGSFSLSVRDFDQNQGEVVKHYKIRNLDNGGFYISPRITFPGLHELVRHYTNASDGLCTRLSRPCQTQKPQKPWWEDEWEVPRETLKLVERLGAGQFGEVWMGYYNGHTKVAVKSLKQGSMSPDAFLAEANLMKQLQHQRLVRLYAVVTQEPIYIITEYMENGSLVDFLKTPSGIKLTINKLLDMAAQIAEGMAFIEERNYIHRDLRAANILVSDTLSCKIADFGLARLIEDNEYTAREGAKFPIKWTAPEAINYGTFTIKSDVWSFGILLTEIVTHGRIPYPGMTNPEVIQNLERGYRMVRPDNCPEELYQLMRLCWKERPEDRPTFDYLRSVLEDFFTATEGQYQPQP
Briefly: Lck enzyme inhibitory activity (time-resolved fluorometry, biotinylated peptide phosphorylation). Particulars: biotinylated peptide phosphorylation, read-out: LCK_IC50. An outline of the steps: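 Readout pairs a europium cryptate-labelled anti-phosphotyrosine antibody with XL665-streptavidin, measured by time-resolved fluorescence. IC50 derived from percent inhibition against untreated controls.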

T2 sequence (P12931 whole entry): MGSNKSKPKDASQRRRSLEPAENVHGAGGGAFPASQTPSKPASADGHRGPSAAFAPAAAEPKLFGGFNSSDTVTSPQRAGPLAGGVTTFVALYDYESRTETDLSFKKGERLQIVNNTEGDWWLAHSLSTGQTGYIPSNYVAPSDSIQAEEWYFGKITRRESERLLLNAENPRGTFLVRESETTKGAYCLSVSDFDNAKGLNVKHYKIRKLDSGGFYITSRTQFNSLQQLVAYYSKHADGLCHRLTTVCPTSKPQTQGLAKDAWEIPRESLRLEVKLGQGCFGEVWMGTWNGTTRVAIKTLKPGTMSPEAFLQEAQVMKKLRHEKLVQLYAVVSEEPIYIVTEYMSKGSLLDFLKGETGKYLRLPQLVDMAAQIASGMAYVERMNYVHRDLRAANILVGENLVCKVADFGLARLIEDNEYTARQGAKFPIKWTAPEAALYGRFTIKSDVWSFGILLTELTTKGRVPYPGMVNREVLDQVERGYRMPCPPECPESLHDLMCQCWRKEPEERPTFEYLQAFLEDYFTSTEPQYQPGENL
T1 sequence (P07947 whole entry): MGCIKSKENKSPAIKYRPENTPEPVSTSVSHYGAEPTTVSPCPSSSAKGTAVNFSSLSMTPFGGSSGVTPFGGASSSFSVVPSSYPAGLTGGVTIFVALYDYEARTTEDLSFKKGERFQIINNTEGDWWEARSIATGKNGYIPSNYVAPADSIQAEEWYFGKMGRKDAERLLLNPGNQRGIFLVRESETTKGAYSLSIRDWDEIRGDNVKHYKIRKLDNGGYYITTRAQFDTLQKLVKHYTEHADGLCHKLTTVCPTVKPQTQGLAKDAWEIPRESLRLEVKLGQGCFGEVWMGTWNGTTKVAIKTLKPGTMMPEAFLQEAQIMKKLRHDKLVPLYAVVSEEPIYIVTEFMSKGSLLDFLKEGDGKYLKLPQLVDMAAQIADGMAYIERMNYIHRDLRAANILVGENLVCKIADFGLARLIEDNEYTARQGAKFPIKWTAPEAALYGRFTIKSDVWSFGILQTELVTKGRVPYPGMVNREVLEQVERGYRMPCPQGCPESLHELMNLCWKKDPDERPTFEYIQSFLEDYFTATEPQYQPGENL

As for `Cc1cc2cc(C(=O)c3cnn(-c4c(C)cc(Oc5ccccc5F)cc4F)c3N)[nH]c2cc1NS(=O)(=O)N1CCOCC1` [Example 4-2-107, N-[2-[5-amino-1-[2-fluoro-4-(2-fluorophenoxy)-6-methylphenyl]pyrazole-4-carbonyl]-5-methyl-1H-indol-6-yl]morpholine-4-sulfonamide], the figures for the pIC50 on human Yes1 enzyme, on human Src enzyme and at human Lck enzyme were 8.62, 6.60 and 7.05, respectively.

Consider `Cc1cc2cc(C(=O)c3cnn(-c4cnc(Oc5ccccc5F)cc4C)c3N)[nH]c2cc1NS(=O)(=O)N1CCOCC1` [Example 4-2-108, N-[2-[5-amino-1-[6-(2-fluorophenoxy)-4-methylpyridin-3-yl]pyrazole-4-carbonyl]-5-methyl-1H-indol-6-yl]morpholine-4-sulfonamide], for which the figures for the pIC50 at human Yes1 enzyme, at human Src enzyme and at human Lck enzyme were 9.00, 7.03 and 7.51, respectively.

In the case of `Cc1cc2cc(C(=O)c3cnn(-c4cnc(Oc5c(F)cccc5F)cc4C)c3N)[nH]c2cc1NS(=O)(=O)N1CCOCC1` [Example 4-2-109, N-[2-[5-amino-1-[6-(2,6-difluorophenoxy)-4-methylpyridin-3-yl]pyrazole-4-carbonyl]-5-methyl-1H-indol-6-yl]morpholine-4-sulfonamide], the pIC50 on human Yes1 enzyme was 8.72; at human Src enzyme, 6.68; at human Lck enzyme, 7.35.

For the compound `Cc1cc2cc(C(=O)c3cnn(-c4cnc(Oc5ccccc5Cl)cc4C)c3N)[nH]c2cc1NS(=O)(=O)N1CCOCC1` [Example 4-2-110, N-[2-[5-amino-1-[6-(2-chlorophenoxy)-4-methylpyridin-3-yl]pyrazole-4-carbonyl]-5-methyl-1H-indol-6-yl]morpholine-4-sulfonamide], the figures for the pIC50 at human Yes1 enzyme, on human Src enzyme and at human Lck enzyme were 8.06, 6.60 and 6.96, respectively.

As for `Cc1cc2cc(C(=O)c3cnn(-c4cnc(Oc5cccc(Cl)c5)cc4C)c3N)[nH]c2cc1NS(=O)(=O)N1CCOCC1` [Example 4-2-111, N-[2-[5-amino-1-[6-(3-chlorophenoxy)-4-methylpyridin-3-yl]pyrazole-4-carbonyl]-5-methyl-1H-indol-6-yl]morpholine-4-sulfonamide], the pIC50 on human Yes1 enzyme is 7.39; at human Src enzyme, 6.16; on human Lck enzyme, 6.49.

As for `Cc1cc2cc(C(=O)c3cnn(-c4ccc(Oc5ccccc5F)cc4C)c3N)[nH]c2cc1N1CCCS1(=O)=O` [Example 4-2-112, [5-amino-1-[4-(2-fluorophenoxy)-2-methylphenyl]pyrazol-4-yl]-[6-(1,1-dioxo-1,2-thiazolidin-2-yl)-5-methyl-1H-indol-2-yl]methanone], the pIC50 at human Yes1 enzyme was 9.03; on human Src enzyme, 7.64; on human Lck enzyme, 8.08.

On to `Cc1cc2cc(C(=O)c3cnn(-c4ccc(Oc5cccc(F)c5F)cc4C)c3N)[nH]c2cc1N1CCCS1(=O)=O` [Example 4-2-113, [5-amino-1-[4-(2,3-difluorophenoxy)-2-methylphenyl]pyrazol-4-yl]-[6-(1,1-dioxo-1,2-thiazolidin-2-yl)-5-methyl-1H-indol-2-yl]methanone], for which the pIC50 is 9.20 on human Yes1 enzyme, 7.74 at human Src enzyme and 8.15 at human Lck enzyme.

With `Cc1cc2cc(C(=O)c3cnn(-c4c(C)cc(Oc5ccccc5F)cc4F)c3N)[nH]c2cc1N1CCCS1(=O)=O` [Example 4-2-114, [5-amino-1-[2-fluoro-4-(2-fluorophenoxy)-6-methylphenyl]pyrazol-4-yl]-[6-(1,1-dioxo-1,2-thiazolidin-2-yl)-5-methyl-1H-indol-2-yl]methanone], the pIC50 at human Yes1 enzyme is 8.30; on human Src enzyme, 7.14; at human Lck enzyme it was 7.80.

Turning to `Cc1cc2cc(C(=O)c3cnn(-c4c(C)cc(Oc5cccc(F)c5F)cc4F)c3N)[nH]c2cc1N1CCCS1(=O)=O` [Example 4-2-115, [5-amino-1-[4-(2,3-difluorophenoxy)-2-fluoro-6-methylphenyl]pyrazol-4-yl]-[6-(1,1-dioxo-1,2-thiazolidin-2-yl)-5-methyl-1H-indol-2-yl]methanone], the pIC50 on human Yes1 enzyme is 8.39; at human Src enzyme, 7.20; on human Lck enzyme, 7.80.

Take `Cc1cc2cc(C(=O)c3cnn(-c4cnc(Oc5c(F)cccc5F)cc4C)c3N)[nH]c2cc1N1CCCS1(=O)=O` [Example 4-2-116, [5-amino-1-[6-(2,6-difluorophenoxy)-4-methylpyridin-3-yl]pyrazol-4-yl]-[6-(1,1-dioxo-1,2-thiazolidin-2-yl)-5-methyl-1H-indol-2-yl]methanone]: the pIC50 at human Yes1 enzyme was 8.82; at human Src enzyme, 7.37; on human Lck enzyme it was 8.03.

As to `Cc1cc2cc(C(=O)c3cnn(-c4cnc(Oc5ccccc5Cl)cc4C)c3N)[nH]c2cc1N1CCCS1(=O)=O` [Example 4-2-117, [5-amino-1-[6-(2-chlorophenoxy)-4-methylpyridin-3-yl]pyrazol-4-yl]-[6-(1,1-dioxo-1,2-thiazolidin-2-yl)-5-methyl-1H-indol-2-yl]methanone], the pIC50 on human Yes1 enzyme was 9.22; on human Src enzyme it was 7.68; at human Lck enzyme it was 8.32.

Regarding `Cc1cc2cc(C(=O)c3cnn(-c4cnc(Oc5cccc(Cl)c5)cc4C)c3N)[nH]c2cc1N1CCCS1(=O)=O` [Example 4-2-118, [5-amino-1-[6-(3-chlorophenoxy)-4-methylpyridin-3-yl]pyrazol-4-yl]-[6-(1,1-dioxo-1,2-thiazolidin-2-yl)-5-methyl-1H-indol-2-yl]methanone], the values for the pIC50 at human Yes1 enzyme, on human Src enzyme and on human Lck enzyme were 8.24, 6.96 and 7.46, respectively.

As to `Cc1cc2cc(C(=O)c3cnn(-c4cnc(Oc5ccc(F)cc5)cc4C)c3N)[nH]c2cc1N1CCCS1(=O)=O` [Example 4-2-119, [5-amino-1-[6-(4-fluorophenoxy)-4-methylpyridin-3-yl]pyrazol-4-yl]-[6-(1,1-dioxo-1,2-thiazolidin-2-yl)-5-methyl-1H-indol-2-yl]methanone], the pIC50 on human Yes1 enzyme is 8.13; on human Src enzyme, 7.15; on human Lck enzyme, 7.64.

With `COc1cc2cc(C(=O)c3cnn(-c4c(C)cc(Oc5ccccc5F)cc4F)c3N)[nH]c2cc1N1CCCS1(=O)=O` [Example 4-2-120, [5-amino-1-[2-fluoro-4-(2-fluorophenoxy)-6-methylphenyl]pyrazol-4-yl]-[6-(1,1-dioxo-1,2-thiazolidin-2-yl)-5-methoxy-1H-indol-2-yl]methanone], the pIC50 on human Yes1 enzyme is 9.00; at human Src enzyme, 7.55; at human Lck enzyme, 8.40.

For `COc1cc2cc(C(=O)c3cnn(-c4cnc(Oc5c(F)cccc5F)cc4C)c3N)[nH]c2cc1N1CCCS1(=O)=O` [Example 4-2-121, [5-amino-1-[6-(2,6-difluorophenoxy)-4-methylpyridin-3-yl]pyrazol-4-yl]-[6-(1,1-dioxo-1,2-thiazolidin-2-yl)-5-methoxy-1H-indol-2-yl]methanone], the pIC50 at human Yes1 enzyme is 9.27; on human Src enzyme, 8.10; on human Lck enzyme it was 8.68.

Consider `Cc1cc2cc(C(=O)c3cnn(-c4ccc(Oc5ccccc5F)cc4C)c3N)[nH]c2cc1N1CCOCC1` [Example 4-2-122, [5-amino-1-[4-(2-fluorophenoxy)-2-methylphenyl]pyrazol-4-yl]-(5-methyl-6-morpholin-4-yl-1H-indol-2-yl)methanone], for which the figures for the pIC50 on human Yes1 enzyme, at human Src enzyme and on human Lck enzyme were 8.44, 7.47 and 8.14, respectively.
